Measurements from ChEMBL document CHEMBL1201862, “PubChem BioAssay data set” (2004).
Values joined by “and” are separate entries in the source; they are usually repeats but may differ in a detail not shown here. Identical values can stand only once.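 Each compound was tested at five concentrations against cells in 96-well plates for 48 hours. GI50 is the concentration that inhibits growth by half.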 Active and inactive are the calls of the source. Rule as the data show it: active = GI50 up to about 1.1 µM and inactive = higher. Residues, ends and D or L forms follow the SMILES beside them. *: point of attachment. Boc = CC(C)(C)OC(=O)*; Bn = c1ccc(C*)cc1

Key:
Assay in all cases: NCI tumour cell line growth inhibition, 48 h
HOP-62 = test system: HOP-62
PC-3 = test system: PC-3
CAKI-1 = test system: CAKI-1
RXF 393 = test system: RXF 393
KM12 = test system: KM12
OVCAR-5 = test system: OVCAR-5
COLO 205 = test system: COLO 205
SN12C = test system: SN12C
OVCAR-8 = test system: OVCAR-8
TK-10 = test system: TK-10
EKVX = test system: EKVX
Hs-578T = test system: Hs-578T
SK-MEL-5 = test system: SK-MEL-5
SK-MEL-28 = test system: SK-MEL-28
LOX IMVI = test system: LOX IMVI
SK-MEL-2 = test system: SK-MEL-2
BT-549 = test system: BT-549
Malme-3M = test system: Malme-3M
SF-268 = test system: SF-268
MDA-MB-435 = test system: MDA-MB-435
HCC 2998 = test system: HCC 2998
HOP-92 = test system: HOP-92
NCI-H23 = test system: NCI-H23
A549 = test system: A549
MDA-MB-231 = test system: MDA-MB-231
HL-60 = test system: HL-60
UACC-62 = test system: UACC-62
U-251 = test system: U-251
SR = test system: SR
OVCAR-3 = test system: OVCAR-3
DU-145 = test system: DU-145
HCT-15 = test system: HCT-15
HT-29 = test system: HT-29
HCT-116 = test system: HCT-116
MOLT-4 = test system: MOLT-4
IGROV-1 = test system: IGROV-1
M14 = test system: M14
RPMI-8226 = test system: RPMI-8226
SF-295 = test system: SF-295
SNB-19 = test system: SNB-19
ACHN = test system: ACHN
K562 = test system: K562
NCI/ADR-RES = test system: NCI/ADR-RES
MDA-N = test system: MDA-N
UACC-257 = test system: UACC-257
NCI-H226 = test system: NCI-H226
A498 = test system: A498
OVCAR-4 = test system: OVCAR-4
SF-539 = test system: SF-539
MCF7 = test system: MCF7
786-0 = test system: 786-0
SW-620 = test system: SW-620
NCI-H522 = test system: NCI-H522
NCI-H460 = test system: NCI-H460
UO-31 = test system: UO-31
SK-OV-3 = test system: SK-OV-3
CCRF-CEM = test system: CCRF-CEM
SNB-75 = test system: SNB-75

Measured: GI50

N#Cc1c(N)[nH]c(=S)c(C#N)c1-c1cccc(Cl)c1
inactive: HOP-62 42.4 µM | PC-3 21.8 µM | CAKI-1 65.8 µM | RXF 393 22.4 µM | KM12 43.3 µM | OVCAR-5 > 100 µM | COLO 205 15.2 µM | SN12C 20.4 µM | OVCAR-8 30.1 µM | TK-10 65.2 µM | EKVX 25.6 µM | Hs-578T 26.7 µM | SK-MEL-5 20.2 µM | SK-MEL-28 39.6 µM | LOX IMVI 39.9 µM | SK-MEL-2 20.3 µM | BT-549 39.5 µM | Malme-3M 56.1 µM | SF-268 21.8 µM | MDA-MB-435 21.4 µM | HCC 2998 15.6 µM | HOP-92 24.4 µM | NCI-H23 71.9 µM | A549 63.7 µM | MDA-MB-231 29.4 µM | HL-60 23.2 µM | UACC-62 29.6 µM | U-251 25.9 µM | SR 18.6 µM | OVCAR-3 26.9 µM | DU-145 33.3 µM | HT-29 34.2 µM | HCT-116 24.4 µM | MOLT-4 18.4 µM | IGROV-1 32.9 µM | M14 36.5 µM | RPMI-8226 23.8 µM | SF-295 34.9 µM | SNB-19 56.2 µM | ACHN 61.1 µM | K562 26.2 µM | NCI/ADR-RES 67.1 µM | MDA-N 18.2 µM | UACC-257 36.3 µM | NCI-H226 19.9 µM | A498 30.1 µM | OVCAR-4 40.7 µM | SF-539 49.2 µM | MCF7 32.3 µM | 786-0 18.6 µM | SW-620 24.4 µM | NCI-H522 18.9 µM | NCI-H460 32.5 µM | UO-31 32.8 µM
41.1 µM: HCT-15

CNC(=O)C(CC(C)C)NC(=O)C(C)NC(=O)C(Cc1ccc(OCc2ccccc2)cc1)NC(=O)C(COCc1ccccc1)NC(=O)OC(C)(C)C (stereo not drawn) (Boc-S(Bn)Y(Bn)AL-NHMe; configuration not given here)
inactive: SK-OV-3 18.5 µM and 27.7 µM | HOP-62 20.5 µM and 22.6 µM | CAKI-1 32.5 µM and > 64 µM | KM12 17 µM and 18.2 µM | OVCAR-8 16.9 µM and 17.1 µM | Hs-578T 25 µM and 15.8 µM | LOX IMVI 16.5 µM and 11.4 µM | BT-549 18.5 µM and 22 µM | SF-268 17.5 µM and 22.9 µM | HOP-92 24.9 µM and 30.5 µM | NCI-H23 20.1 µM and 27.2 µM | MDA-MB-231 15.6 µM and 16.6 µM | UACC-62 18.5 µM and > 10 µM | U-251 15.9 µM and 8.57 µM | SR 15.1 µM and 8.55 µM | DU-145 65.5 µM | HT-29 13.6 µM and 13.4 µM | HCT-116 6.5 µM and 7.45 µM | MOLT-4 6.85 µM and 6.15 µM | IGROV-1 22.3 µM and 23.1 µM | SNB-19 30 µM and 17.4 µM | K562 9.95 µM and 12.6 µM | NCI/ADR-RES > 100 µM | MDA-N 12.1 µM and 14.8 µM | UACC-257 > 100 µM | OVCAR-4 17.9 µM and 20.6 µM | SF-539 > 42.2 µM | MCF7 10.7 µM and 16.1 µM | 786-0 22.8 µM and 20.7 µM | SW-620 11.5 µM and 8.65 µM | NCI-H522 > 10 µM and 13.8 µM | UO-31 > 100 µM
> 100 µM: HCT-15

NC(=S)N/N=c1\cc(C(=O)Nc2ccc([N+](=O)[O-])cc2[N+](=O)[O-])oc2ccccc12
> 100 µM: HCT-15
inactive: SK-OV-3 99.5 µM | HOP-62 > 100 µM | PC-3 > 100 µM | CAKI-1 75.2 µM | RXF 393 > 100 µM | KM12 > 100 µM | OVCAR-5 > 100 µM | COLO 205 > 100 µM | SN12C > 100 µM | OVCAR-8 > 100 µM | TK-10 > 100 µM | EKVX 49.8 µM | Hs-578T > 100 µM | SK-MEL-5 > 100 µM | SK-MEL-28 > 100 µM | LOX IMVI > 100 µM | SK-MEL-2 > 100 µM | BT-549 > 100 µM | SF-268 > 100 µM | MDA-MB-435 > 100 µM | HCC 2998 > 100 µM | CCRF-CEM > 100 µM | HOP-92 43.5 µM | NCI-H23 > 100 µM | A549 > 100 µM | MDA-MB-231 > 100 µM | HL-60 > 100 µM | UACC-62 > 100 µM | U-251 > 100 µM | OVCAR-3 85.5 µM | DU-145 > 100 µM | HT-29 > 100 µM | HCT-116 > 100 µM | MOLT-4 > 100 µM | IGROV-1 > 100 µM | M14 > 100 µM | SF-295 > 100 µM | SNB-19 > 100 µM | ACHN > 100 µM | NCI/ADR-RES > 100 µM | MDA-N > 100 µM | UACC-257 > 100 µM | NCI-H226 88.9 µM | OVCAR-4 > 100 µM | SF-539 > 100 µM | SNB-75 > 100 µM | MCF7 > 100 µM | 786-0 > 100 µM | SW-620 > 100 µM | NCI-H522 > 100 µM | NCI-H460 > 100 µM | UO-31 29.8 µM

CC(O)=NC(Cc1ccc2ccccc2c1)C(O)=NC(Cc1ccc(Cl)cc1)C(O)=NC(Cc1c[nH]c2ccccc12)C(O)=NC(CO)C(O)=NC(Cc1ccc(O)cc1)C(O)=NC(CCCN=C(N)N)C(O)=NC(CC(C)C)C(O)=NC(CCCN=C(N)N)C(=O)N1CCCC1C(O)=NC(C)C(=N)O (stereo not drawn)
63 µM: HCT-15
inactive: SK-OV-3 43.5 µM | HOP-62 85.7 µM | PC-3 32.3 µM | CAKI-1 54.7 µM | RXF 393 37.1 µM | KM12 41.1 µM | OVCAR-5 41.3 µM | COLO 205 26.3 µM | SN12C 37.5 µM | OVCAR-8 27.1 µM | TK-10 30.9 µM | EKVX 39.5 µM | Hs-578T 47.4 µM | SK-MEL-5 34.5 µM | SK-MEL-2 13.4 µM | BT-549 12.1 µM | Malme-3M 99.5 µM | SF-268 > 100 µM | MDA-MB-435 40.1 µM | HCC 2998 63.4 µM | CCRF-CEM > 100 µM | HOP-92 35.5 µM | NCI-H23 31.3 µM | A549 42.6 µM | MDA-MB-231 59.7 µM | HL-60 > 100 µM | UACC-62 45.6 µM | U-251 31.6 µM | SR > 100 µM | OVCAR-3 > 100 µM | DU-145 26.5 µM | HT-29 35.5 µM | MOLT-4 > 100 µM | IGROV-1 33.7 µM | M14 59.8 µM | RPMI-8226 > 100 µM | SF-295 27.9 µM | SNB-19 48.9 µM | ACHN 15 µM | K562 > 100 µM | NCI/ADR-RES 60.3 µM | MDA-N 30.4 µM | UACC-257 32.4 µM | NCI-H226 30.1 µM | A498 37.6 µM | OVCAR-4 74 µM | SF-539 36.6 µM | SNB-75 38.1 µM | MCF7 43.8 µM | 786-0 35.8 µM | SW-620 76.7 µM | NCI-H522 45.9 µM | NCI-H460 54.7 µM | UO-31 26 µM

COc1ccc(N2C(=O)c3cc(C)cnc3S2(=O)=O)cc1
> 100 µM: HCT-15
inactive: SK-OV-3 > 100 µM | HOP-62 > 100 µM | PC-3 > 100 µM | RXF 393 > 100 µM | KM12 > 100 µM | OVCAR-5 > 100 µM | COLO 205 > 100 µM | SN12C > 100 µM | OVCAR-8 > 100 µM | TK-10 > 100 µM | EKVX > 100 µM | Hs-578T > 100 µM | SK-MEL-5 > 100 µM | SK-MEL-28 > 100 µM | LOX IMVI > 100 µM | SK-MEL-2 > 100 µM | BT-549 > 100 µM | Malme-3M > 100 µM | SF-268 > 100 µM | MDA-MB-435 > 100 µM | HCC 2998 > 100 µM | CCRF-CEM > 100 µM | HOP-92 > 100 µM | NCI-H23 > 100 µM | A549 > 100 µM | MDA-MB-231 > 100 µM | HL-60 > 100 µM | UACC-62 > 100 µM | U-251 > 100 µM | SR > 100 µM | OVCAR-3 > 100 µM | DU-145 > 100 µM | HT-29 > 100 µM | HCT-116 > 100 µM | MOLT-4 > 100 µM | IGROV-1 > 100 µM | RPMI-8226 > 100 µM | SF-295 > 100 µM | SNB-19 > 100 µM | ACHN > 100 µM | K562 > 100 µM | NCI/ADR-RES > 100 µM | MDA-N > 100 µM | NCI-H226 > 100 µM | OVCAR-4 > 100 µM | SNB-75 > 100 µM | 786-0 > 100 µM | SW-620 > 100 µM | NCI-H522 > 100 µM | NCI-H460 > 100 µM | UO-31 > 100 µM
